{"source": "patent US6783949B1", "about": "“Processes for determining whether a test substance contains lipases or lipase inhibitors” (Aventis Pharma Deutschland GmbH, priority 1999, dated 2004)", "molecular_target": "T1, lipases, preferably HSL (Rattus norvegicus, UniProt P15304)", "T1 sequence (P15304 1-768 isoform P15304-2)": "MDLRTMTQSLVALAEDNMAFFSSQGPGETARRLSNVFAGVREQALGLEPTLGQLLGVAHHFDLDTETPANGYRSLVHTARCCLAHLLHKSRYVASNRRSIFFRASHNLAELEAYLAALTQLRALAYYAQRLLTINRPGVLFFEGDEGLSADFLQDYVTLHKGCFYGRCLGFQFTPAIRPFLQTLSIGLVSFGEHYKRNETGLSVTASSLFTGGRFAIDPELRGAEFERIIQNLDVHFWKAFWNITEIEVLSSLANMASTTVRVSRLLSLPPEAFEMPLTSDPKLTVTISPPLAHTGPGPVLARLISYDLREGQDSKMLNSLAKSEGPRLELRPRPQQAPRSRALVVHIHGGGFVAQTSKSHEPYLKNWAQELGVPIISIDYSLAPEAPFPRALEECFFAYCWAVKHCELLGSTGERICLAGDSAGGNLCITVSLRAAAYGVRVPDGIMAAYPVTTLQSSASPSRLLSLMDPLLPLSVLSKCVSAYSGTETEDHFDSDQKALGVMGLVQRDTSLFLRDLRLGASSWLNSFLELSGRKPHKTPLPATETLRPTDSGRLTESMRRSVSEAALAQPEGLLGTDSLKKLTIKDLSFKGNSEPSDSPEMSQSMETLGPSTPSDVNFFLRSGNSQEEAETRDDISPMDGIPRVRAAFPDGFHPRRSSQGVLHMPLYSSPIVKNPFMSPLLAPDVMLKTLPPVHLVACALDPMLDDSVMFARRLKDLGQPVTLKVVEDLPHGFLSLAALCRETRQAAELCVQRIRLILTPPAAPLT", "experiment": "Synthesized NBD-acylglycerides as substrates of lipases", "format": "biochemical", "data": [{"molecule": "CCCCCC(=O)OCC(COC(=O)CCCCCCCCCCCNc1ccc([N+](=O)[O-])c2nonc12)OC(=O)CCCCC", "note": "(centres unmarked) [Compound (5), 2-Hexanoyloxy-3-[12-(7-nitrobenzo[1,2,5]oxadiazol-4-ylamino)-dodecanoyloxy]propyl hexanoate]", "values": [{"measurement": "Activity as substrate of lipases", "result": "decrease in activity"}]}, {"molecule": "CCCCCCCCCCCCCCCC(=O)OCC(COC(=O)CCCCCCCCCCCNc1ccc([N+](=O)[O-])c2nonc12)OC(C)=O", "note": "(centres unmarked) [Compound (7), 2-Acetyloxy-3-[12-(7-nitrobenzo[1,2,5]oxadiazol-4-ylamino)-dodecanoyloxy]propyl hexadecanoate]", "values": [{"measurement": "Activity as substrate of lipases", "result": "decrease in activity"}]}]}
